pEC50, pKd, pKi: −log10 of the molar value. Values joined by “and” are separate entries in the source; they are usually repeats but may differ in a detail not shown here. Equal values may be shown once.
Columns and labels:
A/WSN/33 = settings: plaque reduction assay; cited from earlier work
[1] = biological target: T1, full-length A/Udorn/72 M2 WT (Influenza A virus, UniProt P0DOF5); settings: 100 μM, mean ± SEM at 2 min of drug perfusion; ref [3]; cited from earlier work
[2] = biological target: T1, full-length A/Udorn/72 M2 WT
M2 WT = settings: read-out: apparent Ki; block of M2 WT; cited from earlier work

T1 sequence (P0DOF5 whole entry, the tested form may be a part): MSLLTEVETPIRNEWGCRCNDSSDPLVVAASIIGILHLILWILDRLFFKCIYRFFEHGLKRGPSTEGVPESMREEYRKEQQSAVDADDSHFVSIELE

Row | Compound | pEC50 (A/WSN/33) | Percent Block (%) [1] | pKd ([2]; calculated from the ratio koff/kon) | koff ([2]; inferred from extent of block and perfusion-limited block rate) [s⁻¹] | pKi (M2 WT)
1 | c1csc(-c2cc(CNC34CC5CC(CC(C5)C3)C4)on2)c1 [Compound 6] | ~7.00 | 11% and 11 ± 1^g % | < 4.00 | > 1 | 
2 | NC12CC3CC(CC(C3)C1)C2 [Amantadine, amantadine] |  |  |  |  | 6.52
